# ChEMBL document CHEMBL1201862, “PubChem BioAssay data set” (2004)
# Active and inactive are the calls of the source.
# Key:
# [1] = molecular target: T1, Voltage-gated N-type calcium channel alpha-1B subunit/Amyloid beta A4 precursor protein-binding family A member 1 (Homo sapiens, UniProt Q00975+Q02410); test: disruptors of Mint-PDZ/N-type channel peptide interaction – biochemical, HTRF, SAR follow-up (AID 2489); type: functional
# [2] = molecular target: T1, Voltage-gated N-type calcium channel alpha-1B subunit/Amyloid beta A4 precursor protein-binding family A member 1; test: disruptors of Mint-PDZ/N-type channel peptide interaction – biochemical, HTRF, set 2, SAR follow-up (AID 434980); type: functional
# [3] = molecular target: T2, Polyadenylate-binding protein 1 (Homo sapiens, UniProt P11940); test: MLLE domain peptide-binding blockers, IC50 – biochemical, fluorescence polarization, FITC-PAM2 peptide, dose response (AID 602259); type: functional; conditions: read-out: IC50_Mean
# [4] = molecular target: T3, Zinc finger protein mex-5 (Caenorhabditis elegans, UniProt Q9XUB2); test: potency of MEX-5 RNA-binding blockers – biochemical, C. elegans, fluorescence polarization, dose response (AID 1960)
# T3 sequence (Q9XUB2 whole entry): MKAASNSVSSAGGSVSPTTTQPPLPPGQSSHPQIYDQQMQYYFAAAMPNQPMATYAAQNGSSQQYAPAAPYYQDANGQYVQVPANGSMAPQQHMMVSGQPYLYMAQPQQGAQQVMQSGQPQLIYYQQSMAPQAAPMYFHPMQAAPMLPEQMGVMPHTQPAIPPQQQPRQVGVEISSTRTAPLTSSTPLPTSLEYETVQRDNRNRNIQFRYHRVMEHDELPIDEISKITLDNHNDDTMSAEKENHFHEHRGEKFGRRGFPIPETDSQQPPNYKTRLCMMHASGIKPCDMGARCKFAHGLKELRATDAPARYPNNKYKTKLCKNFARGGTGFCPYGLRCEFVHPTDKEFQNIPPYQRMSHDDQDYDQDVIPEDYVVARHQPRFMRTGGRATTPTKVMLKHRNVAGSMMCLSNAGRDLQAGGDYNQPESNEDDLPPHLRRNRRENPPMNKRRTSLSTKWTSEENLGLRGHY
# [5] = molecular target: Genome polyprotein (dengue virus type 2, UniProt P29990); test: flavivirus cap methylation enzyme inhibition – biochemical, confirmation dose response, primary screen (AID 588689); type: functional
# [6] = molecular target: Female germline-specific tumor suppressor gld-1 (Caenorhabditis elegans, UniProt Q17339); test: blockers of GLD-1/TGE RNA complex formation – biochemical, fluorescence polarization, C. elegans, dose response (AID 2802);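 note: fluorescence polarization of labeled TGE RNA bound by purified gld-1 protein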
# [7] = molecular target: Protein Rev (Human immunodeficiency virus type 1 group M subtype B (isolate HXB2)(HIV-1), UniProt P04618); test: blockers of HIV Rev/RRE RNA complex – biochemical, fluorescence polarization, HIV-1, dose response (AID 434976); parameters: species or system Human immunodeficiency virus 1
# [8] = molecular target: T2, Polyadenylate-binding protein 1; test: MLLE binding blockers, Cy5 peptide tracer – biochemical, fluorescence polarization, Cy5-PAM2 peptide, secondary, miRNA deadenylation inhibitor project, dose response (AID 602260); type: functional; conditions: read-out: IC50_Mean
# [9] = molecular target: T4, RNA-binding protein pos-1 (Caenorhabditis elegans, UniProt G5EF15); test: disruptors of C. elegans POS-1 RNA interaction – biochemical, fluorescence polarization, dose response (AID 1964);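 note: purified POS-1 fused to maltose binding protein made in E. coli; potency of compounds blocking POS-1 binding to fluorescent RNA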
# T4 sequence (G5EF15 whole entry): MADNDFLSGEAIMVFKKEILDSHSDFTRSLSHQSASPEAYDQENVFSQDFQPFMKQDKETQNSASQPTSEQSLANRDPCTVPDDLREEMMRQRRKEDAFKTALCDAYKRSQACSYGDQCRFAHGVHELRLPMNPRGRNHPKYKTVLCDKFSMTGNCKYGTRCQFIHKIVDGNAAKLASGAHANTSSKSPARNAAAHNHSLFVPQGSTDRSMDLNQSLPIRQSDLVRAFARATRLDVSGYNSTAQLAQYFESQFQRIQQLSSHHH
# [10] = molecular target: Beta-galactosidase (Escherichia coli, UniProt Q8VNN2); test: detection-enzyme interference by beta-gal modulators – biochemical, E. coli enzyme, set 3, artefact control for CCR6 antagonist project, dose response (AID 504712); type: functional
# [11] = molecular target: Glucose-6-phosphate 1-dehydrogenase (Homo sapiens, UniProt P11413); test: inhibition of Homo sapiens G6PD, dose series – biochemical, fluorescence, selectivity assay for P. falciparum G6PD inhibitor project, dose response (AID 504792); type: functional
# [12] = tested on: CHO; test: CHO cell viability loss, potency – luminescence, cytotoxicity control for TLR9-MyD88 binding inhibitor project, dose response (AID 588339); type: functional, cell-based, hamster; conditions: Cricetulus griseus;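 note: CHO cells stably coexpressing TLR9 and MyD88 fusions from primary screen; compound exposure lasted 48 hours before viability readout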
# [13] = molecular target: Heat shock protein HSP 90-alpha (Homo sapiens, UniProt P07900); type: functional, organism-based
# [14] = molecular target: T5, Hexokinase HKDC1 (Homo sapiens, UniProt Q2TB90); test: inhibition of HKDC1 glucose phosphorylation – biochemical, W721R variant, dose response (AID 504729); type: functional
# T5 sequence (Q2TB90 whole entry): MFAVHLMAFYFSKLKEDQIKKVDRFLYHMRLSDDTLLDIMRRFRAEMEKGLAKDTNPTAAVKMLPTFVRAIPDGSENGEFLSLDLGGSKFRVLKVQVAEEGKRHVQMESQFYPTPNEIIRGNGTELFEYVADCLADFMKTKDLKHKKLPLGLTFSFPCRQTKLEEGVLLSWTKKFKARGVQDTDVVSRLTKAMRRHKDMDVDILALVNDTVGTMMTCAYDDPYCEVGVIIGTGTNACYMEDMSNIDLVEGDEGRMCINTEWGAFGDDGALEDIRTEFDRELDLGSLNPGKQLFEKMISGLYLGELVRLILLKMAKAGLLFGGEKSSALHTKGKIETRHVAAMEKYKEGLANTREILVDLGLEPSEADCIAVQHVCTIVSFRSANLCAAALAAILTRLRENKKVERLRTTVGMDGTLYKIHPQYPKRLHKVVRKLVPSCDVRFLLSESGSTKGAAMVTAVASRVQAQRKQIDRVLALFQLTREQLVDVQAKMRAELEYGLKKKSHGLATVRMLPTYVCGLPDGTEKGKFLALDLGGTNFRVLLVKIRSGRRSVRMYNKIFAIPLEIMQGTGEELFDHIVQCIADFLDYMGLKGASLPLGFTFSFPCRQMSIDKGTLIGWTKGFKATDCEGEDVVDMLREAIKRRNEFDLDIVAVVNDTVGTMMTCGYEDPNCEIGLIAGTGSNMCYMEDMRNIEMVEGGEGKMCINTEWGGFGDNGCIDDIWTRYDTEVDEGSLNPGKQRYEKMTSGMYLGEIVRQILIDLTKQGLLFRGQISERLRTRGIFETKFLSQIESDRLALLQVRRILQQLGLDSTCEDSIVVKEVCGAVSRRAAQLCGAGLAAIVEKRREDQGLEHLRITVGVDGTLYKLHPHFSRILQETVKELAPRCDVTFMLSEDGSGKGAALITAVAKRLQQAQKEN
# [15] = molecular target: T6, Histone-lysine N-methyltransferase NSD2 (Homo sapiens, UniProt O96028); type: biochemical
# T6 sequence (O96028 whole entry): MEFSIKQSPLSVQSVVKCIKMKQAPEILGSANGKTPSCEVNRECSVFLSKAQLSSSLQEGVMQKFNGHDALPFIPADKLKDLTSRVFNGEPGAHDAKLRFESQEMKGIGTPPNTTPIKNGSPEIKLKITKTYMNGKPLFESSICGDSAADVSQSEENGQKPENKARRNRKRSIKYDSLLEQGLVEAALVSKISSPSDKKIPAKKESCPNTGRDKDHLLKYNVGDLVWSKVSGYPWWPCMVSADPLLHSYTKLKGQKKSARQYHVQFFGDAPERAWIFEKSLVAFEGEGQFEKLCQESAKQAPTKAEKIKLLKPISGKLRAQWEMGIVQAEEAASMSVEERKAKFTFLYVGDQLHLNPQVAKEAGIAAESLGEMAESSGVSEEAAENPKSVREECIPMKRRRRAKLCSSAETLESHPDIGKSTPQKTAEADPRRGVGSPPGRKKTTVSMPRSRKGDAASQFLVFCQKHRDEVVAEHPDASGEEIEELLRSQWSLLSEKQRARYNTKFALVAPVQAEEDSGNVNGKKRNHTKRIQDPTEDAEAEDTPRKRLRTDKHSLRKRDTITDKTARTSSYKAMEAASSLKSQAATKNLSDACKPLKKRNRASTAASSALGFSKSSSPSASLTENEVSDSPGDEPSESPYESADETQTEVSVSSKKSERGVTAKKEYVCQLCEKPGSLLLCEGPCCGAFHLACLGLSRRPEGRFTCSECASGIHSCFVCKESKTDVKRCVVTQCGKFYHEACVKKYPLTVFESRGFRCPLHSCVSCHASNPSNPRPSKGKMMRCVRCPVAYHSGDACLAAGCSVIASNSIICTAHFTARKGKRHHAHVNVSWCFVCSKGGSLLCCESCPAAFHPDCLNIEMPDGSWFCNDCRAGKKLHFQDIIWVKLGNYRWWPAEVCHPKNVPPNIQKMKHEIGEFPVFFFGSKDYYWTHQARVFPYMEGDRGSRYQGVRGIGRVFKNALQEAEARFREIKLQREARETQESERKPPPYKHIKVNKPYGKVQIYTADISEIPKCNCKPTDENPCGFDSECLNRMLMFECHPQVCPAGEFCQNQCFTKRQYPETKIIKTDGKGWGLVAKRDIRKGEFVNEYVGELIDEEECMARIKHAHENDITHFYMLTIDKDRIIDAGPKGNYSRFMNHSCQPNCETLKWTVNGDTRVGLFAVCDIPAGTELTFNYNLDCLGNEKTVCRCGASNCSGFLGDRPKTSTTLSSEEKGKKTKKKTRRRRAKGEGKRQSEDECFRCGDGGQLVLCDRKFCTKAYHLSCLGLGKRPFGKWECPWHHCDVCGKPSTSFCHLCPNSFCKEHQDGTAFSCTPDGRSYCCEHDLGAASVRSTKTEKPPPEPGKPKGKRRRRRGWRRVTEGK
# [16] = molecular target: Beta Lactamase (Pseudomonas aeruginosa, UniProt Q932Y6); test: BLA reporter interference, concentration series – BLA reporter cells, FRET fluorescence, artefact control for TLR9-MyD88 binding inhibitor project, dose response (AID 588341); type: cell-based;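 note: cell based assay in CHO-K1 cells stably expressing beta-lactamase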
# [17] = molecular target: T7, Rac GTPase-activating protein 1 (Homo sapiens, UniProt Q9H0H5); test: blockers of MgcRacGAP-driven Rac1 GTP hydrolysis – biochemical, ADP Hunter fluorescence, primary and confirmatory, confirmation (AID 624330); type: functional
# T7 sequence (Q9H0H5 whole entry): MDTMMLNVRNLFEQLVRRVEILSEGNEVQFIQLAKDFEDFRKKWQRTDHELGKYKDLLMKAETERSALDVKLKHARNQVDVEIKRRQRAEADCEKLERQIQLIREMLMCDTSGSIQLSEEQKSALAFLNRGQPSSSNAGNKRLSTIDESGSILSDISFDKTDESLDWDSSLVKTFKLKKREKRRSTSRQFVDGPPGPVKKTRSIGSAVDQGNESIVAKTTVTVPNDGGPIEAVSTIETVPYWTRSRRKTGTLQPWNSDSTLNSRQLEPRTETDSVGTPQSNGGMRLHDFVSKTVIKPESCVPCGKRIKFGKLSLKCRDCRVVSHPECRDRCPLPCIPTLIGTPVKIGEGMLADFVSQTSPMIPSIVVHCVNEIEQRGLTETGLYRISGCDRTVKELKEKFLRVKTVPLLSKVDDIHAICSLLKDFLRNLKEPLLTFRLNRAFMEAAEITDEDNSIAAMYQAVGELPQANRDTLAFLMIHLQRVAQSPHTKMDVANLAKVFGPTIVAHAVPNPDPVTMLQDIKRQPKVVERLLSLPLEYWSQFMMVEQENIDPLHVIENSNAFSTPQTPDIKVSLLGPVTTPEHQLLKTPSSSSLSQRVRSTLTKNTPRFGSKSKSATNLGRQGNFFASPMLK
# [18] = molecular target: Potassium voltage-gated channel subfamily KQT member 2 (Rattus norvegicus, UniProt O88943); test: potentiation of rat KCNQ2 current – cell-based, retigabine-insensitive compounds, dose response (AID 2654); type: functional
# [19] = molecular target: T8, Coagulation factor XII (Homo sapiens, UniProt P00748); test: activated coagulation factor XII inhibitor potency, concentration-effect curve, cell-free (AID 716); type: functional
# T8 sequence (P00748 whole entry): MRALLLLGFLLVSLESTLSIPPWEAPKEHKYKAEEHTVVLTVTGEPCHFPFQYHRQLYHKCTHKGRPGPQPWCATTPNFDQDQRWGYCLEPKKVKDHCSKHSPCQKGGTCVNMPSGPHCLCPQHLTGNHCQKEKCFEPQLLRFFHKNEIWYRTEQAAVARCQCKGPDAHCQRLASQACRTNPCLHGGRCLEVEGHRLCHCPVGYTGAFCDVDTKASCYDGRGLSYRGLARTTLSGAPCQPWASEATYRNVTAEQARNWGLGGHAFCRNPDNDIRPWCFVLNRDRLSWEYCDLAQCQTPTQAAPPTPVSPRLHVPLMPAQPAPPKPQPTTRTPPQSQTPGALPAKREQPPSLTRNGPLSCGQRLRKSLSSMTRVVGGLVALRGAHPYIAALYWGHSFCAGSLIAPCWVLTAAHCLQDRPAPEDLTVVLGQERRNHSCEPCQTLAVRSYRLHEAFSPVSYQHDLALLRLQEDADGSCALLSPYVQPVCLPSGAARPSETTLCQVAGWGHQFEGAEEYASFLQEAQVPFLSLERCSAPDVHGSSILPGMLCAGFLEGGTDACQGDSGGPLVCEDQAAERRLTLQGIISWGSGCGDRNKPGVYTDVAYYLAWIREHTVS
# T2 sequence (P11940 whole entry, the tested form may be a part): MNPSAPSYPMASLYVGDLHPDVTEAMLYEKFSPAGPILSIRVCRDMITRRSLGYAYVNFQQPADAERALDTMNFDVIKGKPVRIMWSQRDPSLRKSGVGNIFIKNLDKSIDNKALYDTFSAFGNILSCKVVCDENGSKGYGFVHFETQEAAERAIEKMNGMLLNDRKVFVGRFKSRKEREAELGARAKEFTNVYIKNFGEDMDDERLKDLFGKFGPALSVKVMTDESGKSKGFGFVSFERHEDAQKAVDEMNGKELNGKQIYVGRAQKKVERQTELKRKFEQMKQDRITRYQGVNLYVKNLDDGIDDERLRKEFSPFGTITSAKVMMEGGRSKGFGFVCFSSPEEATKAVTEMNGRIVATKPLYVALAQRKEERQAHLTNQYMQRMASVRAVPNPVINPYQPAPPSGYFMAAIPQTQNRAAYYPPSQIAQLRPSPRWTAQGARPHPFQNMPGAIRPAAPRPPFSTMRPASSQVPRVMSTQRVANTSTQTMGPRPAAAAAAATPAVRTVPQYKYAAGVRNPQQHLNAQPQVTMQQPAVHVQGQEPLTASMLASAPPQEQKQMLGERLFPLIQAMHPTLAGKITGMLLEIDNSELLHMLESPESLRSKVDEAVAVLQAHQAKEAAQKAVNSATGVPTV
# T1 sequence (Q00975 whole entry): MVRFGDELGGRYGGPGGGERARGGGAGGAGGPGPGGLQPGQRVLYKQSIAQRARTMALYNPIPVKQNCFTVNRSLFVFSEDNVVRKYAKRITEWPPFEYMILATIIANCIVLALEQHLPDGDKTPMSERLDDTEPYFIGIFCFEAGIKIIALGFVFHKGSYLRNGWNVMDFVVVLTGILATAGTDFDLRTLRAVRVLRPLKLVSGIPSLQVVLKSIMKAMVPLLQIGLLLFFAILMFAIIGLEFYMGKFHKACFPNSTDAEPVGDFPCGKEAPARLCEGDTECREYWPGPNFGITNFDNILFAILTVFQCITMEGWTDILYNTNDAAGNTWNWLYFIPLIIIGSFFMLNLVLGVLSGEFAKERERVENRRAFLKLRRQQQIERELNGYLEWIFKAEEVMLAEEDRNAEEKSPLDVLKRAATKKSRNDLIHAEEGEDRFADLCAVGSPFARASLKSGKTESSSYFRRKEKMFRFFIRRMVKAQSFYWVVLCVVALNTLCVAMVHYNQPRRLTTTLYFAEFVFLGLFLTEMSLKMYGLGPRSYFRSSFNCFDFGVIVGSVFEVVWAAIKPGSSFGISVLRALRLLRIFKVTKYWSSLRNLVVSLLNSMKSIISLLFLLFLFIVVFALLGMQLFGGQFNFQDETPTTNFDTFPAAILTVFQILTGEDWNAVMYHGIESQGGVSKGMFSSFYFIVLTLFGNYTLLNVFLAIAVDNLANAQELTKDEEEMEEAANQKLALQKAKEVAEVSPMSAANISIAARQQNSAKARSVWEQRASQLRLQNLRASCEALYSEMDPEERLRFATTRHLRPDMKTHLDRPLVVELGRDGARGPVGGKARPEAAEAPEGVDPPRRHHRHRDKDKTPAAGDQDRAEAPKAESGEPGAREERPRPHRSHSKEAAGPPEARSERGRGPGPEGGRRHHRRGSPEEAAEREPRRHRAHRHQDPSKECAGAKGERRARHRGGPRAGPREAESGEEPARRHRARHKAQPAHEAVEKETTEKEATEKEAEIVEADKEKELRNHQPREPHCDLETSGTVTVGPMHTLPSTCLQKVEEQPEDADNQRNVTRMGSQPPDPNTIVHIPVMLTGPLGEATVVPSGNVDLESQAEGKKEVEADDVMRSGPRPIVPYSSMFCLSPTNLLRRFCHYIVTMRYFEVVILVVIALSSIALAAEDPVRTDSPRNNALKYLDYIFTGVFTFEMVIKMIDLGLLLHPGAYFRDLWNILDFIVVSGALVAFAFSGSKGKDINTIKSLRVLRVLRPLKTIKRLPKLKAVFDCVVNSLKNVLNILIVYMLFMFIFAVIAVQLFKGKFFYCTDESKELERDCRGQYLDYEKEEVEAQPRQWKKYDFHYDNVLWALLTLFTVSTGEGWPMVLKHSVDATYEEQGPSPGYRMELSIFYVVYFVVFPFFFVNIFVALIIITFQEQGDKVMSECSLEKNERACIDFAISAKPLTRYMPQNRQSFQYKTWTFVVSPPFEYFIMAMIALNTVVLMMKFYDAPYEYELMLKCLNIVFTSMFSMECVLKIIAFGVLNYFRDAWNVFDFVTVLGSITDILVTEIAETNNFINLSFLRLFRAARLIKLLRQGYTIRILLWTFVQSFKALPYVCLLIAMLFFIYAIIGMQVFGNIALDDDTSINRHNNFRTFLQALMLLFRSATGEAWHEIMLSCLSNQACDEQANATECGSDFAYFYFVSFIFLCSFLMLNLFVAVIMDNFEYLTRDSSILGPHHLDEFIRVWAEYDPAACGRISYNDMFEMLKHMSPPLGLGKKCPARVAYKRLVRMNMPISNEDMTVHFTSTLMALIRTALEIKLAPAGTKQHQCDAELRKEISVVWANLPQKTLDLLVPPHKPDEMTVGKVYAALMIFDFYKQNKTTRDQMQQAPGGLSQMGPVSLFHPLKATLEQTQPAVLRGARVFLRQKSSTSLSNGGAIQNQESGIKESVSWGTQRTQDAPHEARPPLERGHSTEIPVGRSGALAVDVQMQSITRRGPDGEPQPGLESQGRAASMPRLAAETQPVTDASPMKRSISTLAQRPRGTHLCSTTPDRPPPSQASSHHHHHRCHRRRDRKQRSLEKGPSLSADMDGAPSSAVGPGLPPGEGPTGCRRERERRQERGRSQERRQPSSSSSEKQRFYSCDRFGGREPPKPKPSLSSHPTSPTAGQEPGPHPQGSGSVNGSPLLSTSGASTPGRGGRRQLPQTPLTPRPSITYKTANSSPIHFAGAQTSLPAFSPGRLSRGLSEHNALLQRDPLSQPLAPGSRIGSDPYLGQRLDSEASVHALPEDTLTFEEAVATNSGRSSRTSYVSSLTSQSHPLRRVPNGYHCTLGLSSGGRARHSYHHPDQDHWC
# T1 sequence (Q02410 whole entry): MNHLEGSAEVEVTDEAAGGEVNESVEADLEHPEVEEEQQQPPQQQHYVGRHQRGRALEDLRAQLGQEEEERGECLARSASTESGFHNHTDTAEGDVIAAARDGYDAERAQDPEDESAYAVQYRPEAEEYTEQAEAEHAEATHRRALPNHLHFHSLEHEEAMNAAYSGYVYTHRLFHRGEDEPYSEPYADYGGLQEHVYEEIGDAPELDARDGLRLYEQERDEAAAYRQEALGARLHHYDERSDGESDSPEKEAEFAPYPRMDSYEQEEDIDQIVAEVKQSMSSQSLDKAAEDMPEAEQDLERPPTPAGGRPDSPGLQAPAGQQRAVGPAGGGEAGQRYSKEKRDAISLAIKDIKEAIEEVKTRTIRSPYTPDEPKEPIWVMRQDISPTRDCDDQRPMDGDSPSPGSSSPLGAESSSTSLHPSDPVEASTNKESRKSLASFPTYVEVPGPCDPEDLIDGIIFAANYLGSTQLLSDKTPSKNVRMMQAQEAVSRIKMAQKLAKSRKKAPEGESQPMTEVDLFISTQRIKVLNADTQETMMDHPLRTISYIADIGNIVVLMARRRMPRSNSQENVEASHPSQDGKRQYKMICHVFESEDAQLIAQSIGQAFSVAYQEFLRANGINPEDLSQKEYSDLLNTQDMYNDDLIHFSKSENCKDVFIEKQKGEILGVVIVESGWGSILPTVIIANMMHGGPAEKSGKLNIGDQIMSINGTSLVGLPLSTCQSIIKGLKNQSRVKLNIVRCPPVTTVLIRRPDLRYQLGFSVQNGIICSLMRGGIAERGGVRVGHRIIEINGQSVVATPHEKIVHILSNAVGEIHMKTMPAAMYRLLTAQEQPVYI
# Sequence of Potassium voltage-gated channel subfamily KQT member 2 (O88943 whole entry): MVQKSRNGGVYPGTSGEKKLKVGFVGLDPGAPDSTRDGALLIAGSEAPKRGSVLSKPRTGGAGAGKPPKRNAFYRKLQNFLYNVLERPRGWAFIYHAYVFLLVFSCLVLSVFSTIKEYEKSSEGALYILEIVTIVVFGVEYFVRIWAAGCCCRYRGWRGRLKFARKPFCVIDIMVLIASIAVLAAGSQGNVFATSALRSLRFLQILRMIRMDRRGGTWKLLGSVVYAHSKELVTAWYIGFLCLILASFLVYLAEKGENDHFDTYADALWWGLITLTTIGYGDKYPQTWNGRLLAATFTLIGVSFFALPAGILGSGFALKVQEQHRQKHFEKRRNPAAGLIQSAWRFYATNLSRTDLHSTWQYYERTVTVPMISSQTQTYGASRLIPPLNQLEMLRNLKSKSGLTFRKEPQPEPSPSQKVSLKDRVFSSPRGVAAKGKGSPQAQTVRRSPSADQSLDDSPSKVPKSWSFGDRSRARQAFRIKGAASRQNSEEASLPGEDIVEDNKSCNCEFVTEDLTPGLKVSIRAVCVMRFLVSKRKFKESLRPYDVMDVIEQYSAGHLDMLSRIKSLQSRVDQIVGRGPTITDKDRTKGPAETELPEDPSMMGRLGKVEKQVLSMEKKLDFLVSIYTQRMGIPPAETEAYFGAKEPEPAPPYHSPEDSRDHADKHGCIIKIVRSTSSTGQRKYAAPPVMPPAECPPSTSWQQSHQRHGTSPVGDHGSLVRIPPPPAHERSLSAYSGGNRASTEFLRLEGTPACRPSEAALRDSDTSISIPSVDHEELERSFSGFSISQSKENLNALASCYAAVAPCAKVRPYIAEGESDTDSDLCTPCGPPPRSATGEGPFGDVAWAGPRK
# Sequence of Protein Rev (P04618 whole entry): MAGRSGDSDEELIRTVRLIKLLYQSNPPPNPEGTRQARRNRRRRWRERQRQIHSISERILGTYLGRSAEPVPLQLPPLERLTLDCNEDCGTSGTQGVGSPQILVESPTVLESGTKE
# Sequence of Beta Lactamase (Q932Y6 whole entry): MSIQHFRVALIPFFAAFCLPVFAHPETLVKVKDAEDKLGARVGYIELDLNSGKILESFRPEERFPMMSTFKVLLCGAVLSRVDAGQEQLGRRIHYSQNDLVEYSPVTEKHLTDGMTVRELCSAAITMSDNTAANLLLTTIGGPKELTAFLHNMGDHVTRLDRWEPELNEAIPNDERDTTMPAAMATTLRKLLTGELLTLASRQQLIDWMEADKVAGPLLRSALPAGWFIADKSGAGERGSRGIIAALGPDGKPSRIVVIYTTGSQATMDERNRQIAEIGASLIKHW
smiles,measurement,setting,value
COC(=O)c1cc(N2C(=O)C3C(C2=O)C2(C)C=CC3(C)O2)ccc1Cl (stereo not drawn),IC50,[1],> 56.8 µM (inactive)
same,IC50,[2],> 56.8 µM (inactive)
O=C1c2ccccc2C(=O)c2c1cccc2N(CCO)CCO,IC50,[3],47.7 µM (inactive)
same,EC50,[4],17 µM (active)
same,IC50,[5],28.8 µM (active)
same,IC50,[6],5.51 µM (active)
same,IC50,[7],8.44 µM (active)
same,IC50,[8],> 66 µM (inactive)
same,EC50,[9],19.6 µM (active)
O=C1C(Cl)=C(NCCc2ccccc2)C(=O)c2ccccc21,IC50,[3],> 66 µM (inactive)
same,IC50,[10],> 66.6 µM (inactive)
same,IC50,[11],19.7 µM (active)
same,IC50,[12],1.58 µM (active)
same,AC50,[13],3.38 µM (active)
same,IC50,[5],9.15 µM (active)
same,IC50,[14],7.92 µM (active)
same,AC50,[15],3.78 µM (active)
same,IC50,[8],> 66 µM (inactive)
same,IC50,[16],17.7 µM (inactive)
same,IC50,[17],218 µM (active)
O=C(NCc1ccc(Cl)cc1Cl)Nc1ccc(Cl)nc1,EC50,[18],3.74 µM (active)
O=C(Nc1cccnc1)Nc1cccc(Cl)c1,EC50,[18],18.3 µM (active)
COc1ccc(CNc2nc(NCc3ccc(OC)cc3)n(S(C)(=O)=O)n2)cc1,IC50,[19],> 50 µM (inactive)
